Measurements: US20120270237A9, “METHODS FOR THE IDENTIFICATION OF KINASE INTERACTING MOLECULES AND FOR THE PURIFICATION OF KINASE PROTEINS” (Cellzone AG, priority 2009, published 2012)

Tests used:
TBK1 = biological target: T1, TBK1 (Homo sapiens, UniProt Q9UHD2); test: Kinobeads competition binding, L-363 cell lysate; set-up: capturing and identification of kinases from L-363 cell lysate; endogenous in cells; host or cells: L-363 (treated with MG132 before harvest); conditions: 10 μM free compound, L-363 lysate
T1 sequence (Q9UHD2 1-729): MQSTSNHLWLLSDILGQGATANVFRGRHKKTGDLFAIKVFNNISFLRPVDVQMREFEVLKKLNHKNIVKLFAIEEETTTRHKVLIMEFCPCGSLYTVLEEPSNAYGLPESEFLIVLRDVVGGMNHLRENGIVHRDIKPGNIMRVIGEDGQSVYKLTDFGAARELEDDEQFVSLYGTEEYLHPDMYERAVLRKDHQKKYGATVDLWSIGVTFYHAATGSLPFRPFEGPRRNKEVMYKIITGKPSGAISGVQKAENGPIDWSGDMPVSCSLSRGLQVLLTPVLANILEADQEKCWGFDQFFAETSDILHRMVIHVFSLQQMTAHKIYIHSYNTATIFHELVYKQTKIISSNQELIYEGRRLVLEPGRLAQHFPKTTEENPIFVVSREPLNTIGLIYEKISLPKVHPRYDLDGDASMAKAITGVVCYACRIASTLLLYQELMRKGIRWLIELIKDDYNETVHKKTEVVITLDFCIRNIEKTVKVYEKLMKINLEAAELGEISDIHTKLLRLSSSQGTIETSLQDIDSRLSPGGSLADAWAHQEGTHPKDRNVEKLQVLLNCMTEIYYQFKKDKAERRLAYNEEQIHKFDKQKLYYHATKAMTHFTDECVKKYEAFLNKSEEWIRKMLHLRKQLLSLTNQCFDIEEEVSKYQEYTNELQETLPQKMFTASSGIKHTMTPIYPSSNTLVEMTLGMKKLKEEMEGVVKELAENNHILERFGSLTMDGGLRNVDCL
Protocol: (§1) To one aliquot of cell lysate 10 μM of the free compound (FIG. 3, CZC31326) was added and allowed to bind to proteins in the lysate. Then the affinity matrix with the immobilized compound was added to capture proteins that were not interacting with the previously added free compound. Beads were separated from the lysate and bead bound proteins were eluted in SDS sample buffer and subsequently separated by SDS-Polyacrylamide gel electrophoresis (FIG. 8). Suitable gel bands were cut out and subjected to in-gel proteolytic digestion with trypsin. The second lysate aliquot was processed identically, however no free compound was added (DMSO solvent control). Peptides originating from samples 1 and 2 were labeled with iTRAQ reagents (iTRAQ 114 and iTRAQ 117) and the combined samples were analyzed with a nano-flow liquid chromatography system coupled online to a tandem mass spectrometer (LC-MS/MS) experiment followed by iTRAQ reporter ion quantification in the MS/MS spectra as described in Example 2.
For this experiment the human plasma cell leukaemia line L-363 was used (German Collection of Microorganisms and Cell Cultures, DSMZ number ACC49, Braunschweig, Germany). Cells were treated for three hours with 20 μM of the proteasome inhibitor MG132 (Z-Leu-Leu-Leu-al, Sigma C2211) prior to cell harvesting.

Wee1 = Wee1 (Homo sapiens, UniProt P30291); test: Kinobeads competition binding, HeLa Placenta lysate mix; set-up: kinases from mixed HeLa placenta lysates; endogenous in cells; host or cells: mixed lysate of HeLa cells and placenta tissue; conditions: 10 μM free compound
Wee1, sequence (P30291 whole entry): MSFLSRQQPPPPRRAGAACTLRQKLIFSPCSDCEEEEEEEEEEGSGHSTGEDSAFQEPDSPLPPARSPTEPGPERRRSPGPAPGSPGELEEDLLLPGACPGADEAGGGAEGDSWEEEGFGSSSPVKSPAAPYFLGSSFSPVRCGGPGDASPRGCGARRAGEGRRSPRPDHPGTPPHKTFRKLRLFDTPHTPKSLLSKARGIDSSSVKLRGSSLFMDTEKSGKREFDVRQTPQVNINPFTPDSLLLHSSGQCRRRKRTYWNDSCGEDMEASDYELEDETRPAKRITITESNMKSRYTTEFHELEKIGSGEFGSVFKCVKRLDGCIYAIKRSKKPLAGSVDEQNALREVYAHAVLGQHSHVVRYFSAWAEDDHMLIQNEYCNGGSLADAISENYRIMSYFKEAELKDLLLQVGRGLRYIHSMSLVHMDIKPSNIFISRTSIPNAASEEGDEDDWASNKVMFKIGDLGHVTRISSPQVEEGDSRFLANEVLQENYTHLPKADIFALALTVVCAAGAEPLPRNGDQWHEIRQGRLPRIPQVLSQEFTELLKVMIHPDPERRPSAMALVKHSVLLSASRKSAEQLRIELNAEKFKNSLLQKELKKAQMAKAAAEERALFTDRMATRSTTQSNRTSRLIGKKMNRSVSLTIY
Protocol: as §1, with “10).” for “8).”

ULK3 = biological target: T2, ULK3 (Homo sapiens, UniProt Q6PHR2); test: as above; set-up: kinases from mixed HeLa placenta lysates; endogenous in cells; host or cells: mixed lysate of HeLa cells and placenta tissue; conditions: 10 μM free compound
T2 sequence (Q6PHR2 1-472): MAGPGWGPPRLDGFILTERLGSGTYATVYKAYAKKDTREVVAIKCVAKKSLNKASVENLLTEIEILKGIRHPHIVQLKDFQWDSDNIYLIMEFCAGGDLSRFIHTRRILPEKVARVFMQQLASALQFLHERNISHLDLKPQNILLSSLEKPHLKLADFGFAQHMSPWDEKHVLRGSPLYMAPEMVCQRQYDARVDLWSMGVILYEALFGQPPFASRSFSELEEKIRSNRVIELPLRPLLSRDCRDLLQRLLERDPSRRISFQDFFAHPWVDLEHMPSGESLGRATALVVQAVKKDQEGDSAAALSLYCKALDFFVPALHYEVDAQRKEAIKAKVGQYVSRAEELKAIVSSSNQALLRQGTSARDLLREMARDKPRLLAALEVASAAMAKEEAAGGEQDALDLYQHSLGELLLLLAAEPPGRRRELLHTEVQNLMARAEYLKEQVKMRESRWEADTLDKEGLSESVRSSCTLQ
Protocol: as §1, with “10).” for “8).”

CS(=O)(=O)Nc1ccccc1Nc1nc(Nc2cccc(OCCN)c2)ncc1Cl [CZC31326, N-(2-(2-(3-(2-aminoethoxy)phenylamino)-5-chloropyrimidin-4-ylamino)phenyl)methanesulfonamide]
inhibition at 10 µM (TBK1): 95.8%
inhibition at 10 µM (Wee1): 95.2%
Competition % (ULK3): 94.6%
